Assay results: ChEMBL document CHEMBL4359891, “Synthesis of polyfluoroalkyl sp2-iminosugar glycolipids and evaluation of their immunomodulatory properties towards anti-tumor, anti-leishmanial and anti-inflammatory therapies” (Eur J Med Chem, 2019)
Activity calls are given as the source filed them. No cut-off for these calls is given here.

Key:
A549 = assay: Antiproliferative activity against human A549 cells assessed as growth inhibition after 48 hrs by SRB assay; assay type: functional; details: A549, 48 h
HBL-100 = assay: Antiproliferative activity against human HBL100 cells assessed as growth inhibition after 48 hrs by SRB assay; assay type: functional; details: HBL-100, 48 h
HeLa = assay: Antiproliferative activity against human HeLa cells assessed as growth inhibition after 48 hrs by SRB assay; assay type: functional
SW1573 = assay: Antiproliferative activity against human SW1573 cells assessed as growth inhibition after 48 hrs by SRB assay; assay type: functional; details: SW1573, 48 h
T47D = assay: Antiproliferative activity against human T47D cells assessed as growth inhibition after 48 hrs by SRB assay; assay type: functional
WiDr = assay: Antiproliferative activity against human WiDr cells assessed as growth inhibition after 48 hrs by SRB assay; assay type: functional
[1] = Critical aggregation concentration of compound by spectrofluorophotometric method; assay type: physicochemical
Leishmania donovani = assay: Antileishmanial activity against intracellular amastigote stage of Leishmania donovani fused with LUC infected in human THP1 cells assessed as parasite growth inhibition after 72 hrs post infection by luciferase based assay; assay type: functional, organism-based; details: THP-1, 72 h
THP-1 = assay: Cytotoxicity against human THP1 cells assessed as reduction in cell viability after 72 hrs by MTT assay; assay type: cell-based; details: THP-1, 72 h
BV-2 [2] = assay: Cytotoxicity against mouse BV2 cells assessed as reduction in cell viability up to 10 uM by crystal violet staining based assay
BV-2 [3] = assay: Antiinflammatory activity against mouse BV2 cells assessed as reduction in LPS-induced nitrite level at 1 to 10 uM by Griess assay; assay type: functional, cell-based
BV-2 [4] = assay: Antiinflammatory activity against mouse BV2 cells assessed as reduction in LPS-induced iNOS protein expression at 10 uM by Western blot analysis; assay type: functional, cell-based
[5] = molecular target: Mitogen-activated protein kinase 14 (Mus musculus) (UniProt P47811); assay: Activation of p38 alpha MAPK in mouse BV2 cells assessed as p38 phosphorylation at 10 uM by Western blot analysis; assay type: cell-based; details: TDE = time-dependent effect
[6] = molecular target: Mitogen-activated protein kinase 14 (Mus musculus) (UniProt P47811); assay: Activation of p38 alpha MAPK in mouse BV2 cells assessed as p38 phosphorylation at 1 uM incubated for 15 to 60 mins by Western blot analysis; assay type: cell-based
[7] = molecular target: Mitogen-activated protein kinase 14 (Mus musculus) (UniProt P47811); assay: Activation of p38 alpha MAPK in mouse BV2 cells assessed as p38 phosphorylation at 1 uM by Western blot analysis; assay type: cell-based; details: TDE = time-dependent effect
BV-2 [8] = assay: Antiinflammatory activity against mouse BV2 cells assessed as reduction in LPS-induced iNOS protein expression at 1 uM by Western blot analysis; assay type: functional, cell-based

Chain of Mitogen-activated protein kinase 14 (Mus musculus) (P47811 whole entry): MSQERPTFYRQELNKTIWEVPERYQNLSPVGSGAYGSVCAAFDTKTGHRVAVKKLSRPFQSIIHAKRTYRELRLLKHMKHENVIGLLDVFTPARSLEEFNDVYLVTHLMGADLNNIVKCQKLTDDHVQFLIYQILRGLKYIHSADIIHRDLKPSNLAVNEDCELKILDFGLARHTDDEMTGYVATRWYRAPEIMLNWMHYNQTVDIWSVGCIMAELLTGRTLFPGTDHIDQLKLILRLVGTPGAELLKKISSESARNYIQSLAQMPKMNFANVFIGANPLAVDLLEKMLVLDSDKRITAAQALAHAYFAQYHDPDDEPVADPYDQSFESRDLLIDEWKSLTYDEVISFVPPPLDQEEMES

| GI50 (A549) [µM] | GI50 (HeLa) [µM] | GI50 (SW1573) [µM] | GI50 (T47D) [µM] | CAC [1] [µM] | Activity [5] | Activity [6] | Activity [7] | Structure (SMILES) | GI50 (HBL-100) [µM] | GI50 (WiDr) [µM] | EC50 (Leishmania donovani) [µM] | EC50 (THP-1) [µM] | Activity (BV-2 [2]) | Activity (BV-2 [3]) | Activity (BV-2 [4]) | Activity (BV-2 [8]) |
| --- | --- | --- | --- | --- | --- | --- | --- | --- | --- | --- | --- | --- | --- | --- | --- | --- |
| 12 | 12 | 14 | 11 | 22 | Tde |  |  | O=C(CCC(F)(F)C(F)(F)C(F)(F)C(F)(F)C(F)(F)C(F)(F)F)NCCCCCCCCCN[C@@H]1[C@H](O)[C@@H](O)[C@H](O)[C@H]2COC(=O)N21 | 16 | 13 | 24.6 | 65 | Non-Toxic | Active | Active |  |
| 76 | 45 | > 100 | 96 | 118 |  |  |  | O=C(CCC(F)(F)C(F)(F)C(F)(F)C(F)(F)F)NCCCCCCCCCN[C@@H]1[C@H](O)[C@@H](O)[C@@H](O)[C@H]2COC(=O)N21 | > 100 | > 100 | > 40 | > 200 |  |  |  |  |
| 17 | 10 | 14 | 15 | 14 |  |  | Tde | O=C(CCC(F)(F)C(F)(F)C(F)(F)C(F)(F)C(F)(F)C(F)(F)F)NCCCCCCCCCN[C@@H]1[C@H](O)[C@@H](O)[C@@H](O)[C@H]2COC(=O)N21 | 16 | 17 | 27.2 | 56.6 | Non-Toxic | Active |  | Active |
| > 100 | > 100 | > 100 | > 100 | 77.9 |  |  |  | O=C(CCC(F)(F)C(F)(F)C(F)(F)C(F)(F)F)NCCCCCCCCCN[C@@H]1[C@H](O)[C@@H](O)[C@H](O)[C@H]2COC(=O)N21 | > 100 | > 100 | > 40 | > 200 |  |  |  |  |

Further lines, the compound ahead of its results:

| Structure (SMILES) | GI50 (A549) [µM] | GI50 (HeLa) [µM] | GI50 (SW1573) [µM] | GI50 (T47D) [µM] | CAC [1] [µM] | Activity [5] | Activity [6] | Activity [7] | GI50 (HBL-100) [µM] | GI50 (WiDr) [µM] | EC50 (Leishmania donovani) [µM] | EC50 (THP-1) [µM] | Activity (BV-2 [2]) | Activity (BV-2 [3]) | Activity (BV-2 [4]) | Activity (BV-2 [8]) |
| --- | --- | --- | --- | --- | --- | --- | --- | --- | --- | --- | --- | --- | --- | --- | --- | --- |
| O=C(CCC(F)(F)C(F)(F)C(F)(F)C(F)(F)C(F)(F)C(F)(F)C(F)(F)C(F)(F)F)NCCCCCCCCCN[C@@H]1[C@H](O)[C@@H](O)[C@H](O)[C@H]2COC(=O)N21 | > 100 | > 100 | > 100 | > 100 | 6.9 |  |  |  | > 100 | > 100 | 30 | 152 |  |  |  |  |
| CCCCCCCCCCCCCCCCOP(=O)([O-])OCC[N+](C)(C)C [MILTEFOSINE] |  |  |  |  |  |  |  |  |  |  | 0.44 |  |  |  |  |  |
| CCCCCCCCCCCCS(=O)(=O)[C@@H]1[C@H](O)[C@@H](O)[C@@H](O)[C@H]2COC(=O)N21 |  |  |  |  |  |  | Active |  |  |  |  |  |  |  |  |  |
| O=C(CCC(F)(F)C(F)(F)C(F)(F)C(F)(F)C(F)(F)C(F)(F)C(F)(F)C(F)(F)F)NCCCCCCCCCN[C@@H]1[C@H](O)[C@@H](O)[C@@H](O)[C@H]2COC(=O)N21 | > 100 | > 100 | > 100 | > 100 | 13 |  |  |  | > 100 | > 100 | 22.9 | 124 |  |  |  |  |
